Assay results taken from patent US20160137639A1, “TRIAZOLE-ISOXAZOLE COMPOUND AND MEDICAL USE THEREOF” (JAPAN TOBACCO INC., priority 2012, published 2016).

target: T1, human RORγ (Homo sapiens, UniProt P51449); assay: Luciferase reporter gene assay of inhibitory effect against RORγ transcriptional activity (GAL4-hRORγ plasmid in CHO cells); format: cell-based; settings: read-out: LUC EC50 (μM) hRORg
T1 construct: human, NM_005060.3 and from Ser253 to Lys518; expressed in transfected cells; host or cells: CHO cells (transient co-transfection with pG5-Luc reporter)
T1 sequence (P51449 253-518): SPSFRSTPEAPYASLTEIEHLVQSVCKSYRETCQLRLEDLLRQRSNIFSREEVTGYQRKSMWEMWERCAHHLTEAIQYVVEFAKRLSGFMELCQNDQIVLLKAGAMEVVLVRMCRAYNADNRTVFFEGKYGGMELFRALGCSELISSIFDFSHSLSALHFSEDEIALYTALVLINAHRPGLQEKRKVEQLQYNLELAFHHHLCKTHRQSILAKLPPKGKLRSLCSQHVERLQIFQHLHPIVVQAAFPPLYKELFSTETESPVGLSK

`CC(=O)N1C[C@H](C(=O)Nc2ccc(C)cc2C)[C@@H](c2nnc(-c3ccc(C(C)C)cc3)n2C2CC2)C1` [Example F-411] and `CC(=O)N1C[C@H](C(=O)Nc2ccc(C)cc2C)[C@@H](c2nnc(CCCC(C)(C)C)n2C2CC2)C1` [Example F-338] cannot be ordered by EC50: less than 3 µM for the first, less than 3 µM for the second.

Compared with `Cc1ccc(NC(=O)CC(CCC(=O)N(C)C)c2nnc(CCCC(C)C)n2C2CC2)c(C)c1` (racemic) [Example F-286], `COc1cc(C)ccc1CNC(=O)C[C@H](NC(C)=O)c1nnc(CCCC(C)C)n1C1CC1` [Example F-312] is higher in EC50: less than 3 µM for the first, greater than 3 µM for the second.

Going from `Cc1c(Cl)cccc1NC(=O)[C@H]1CN(C(=O)CO)C[C@@H]1c1nnc(CCC(C)C)n1C1CC1` (racemic) [Example F-146] to `CCC(C)CCc1nnc(CCC(=O)Nc2cccc(Cl)c2C)n1C1CC1` (racemic) [Example F-235], the EC50 falls from greater than 3 µM to less than 3 µM. The second is the more potent here.

`CC(C)n1c(CCC(=O)Nc2cccc3ccccc23)nnc1C1Cc2ccccc2C1` [Example F-6] and `CCn1c(CCC(=O)Nc2cccc3ccccc23)nnc1CC1CCCCC1` [Example F-17] cannot be ordered by EC50: greater than 3 µM for the first, greater than 3 µM for the second.

`COc1cc(C)ccc1CNC(=O)[C@H]1CCN(C(C)=O)[C@@H]1c1nnc(CCCC(C)(C)C)n1C1CC1` [Example F-297] and `CC(=O)N1CC([C@@H](CC(=O)Nc2ccc(C)cc2C)c2nnc([C@H]3C[C@@H](CC(C)C)C3)n2C2CC2)C1` [Example F-466] cannot be ordered by EC50: less than 3 µM for the first, less than 3 µM for the second.

Compared with `CC(C)(C)CCc1cc(-c2onc([C@@H](CCC(=O)O)CC(=O)Nc3ccc(F)cc3Cl)c2C2CC2)no1` [Example E-34], `Cc1cnccc1NC(=O)CCc1nnc(CCC(C)C)n1C1CC1` [Example F-89] is higher in EC50: less than 3 µM for the first, greater than 3 µM for the second.

Work on `CCn1c(CCC(=O)Nc2cccc3ccccc23)nnc1CCC1CCCCC1` [Example F-13] yielded an EC50 of less than 3 µM.

same assay, conditions: read-out: LUC EC50 hRORg

`Cc1ccc(NC(=O)[C@H]2CN(C(C)C)C[C@@H]2c2nnc([C@H]3C[C@@H](CC(C)C)C3)n2C2CC2)c(C)c1` [Example F-597] and `Cc1ccc(NC(=O)[C@H]2CC(CO)C[C@@H]2c2nnc([C@H]3C[C@@H](CC(C)C)C3)n2C2CC2)c(C)c1` (single isomer, unassigned) [Example F-512] cannot be ordered by EC50: less than 3 µM for the first, less than 3 µM for the second.

`CCN(CC)C(=O)CN1C[C@H](C(=O)Nc2ccc(C)cc2C)[C@@H](c2nnc([C@H]3C[C@@H](CC(C)(C)C)C3)n2C2CC2)C1` [Example F-649] and `Cc1ccc(NC(=O)[C@H]2CN(C(=O)OC(C)(C)C)C[C@@H]2c2nnc([C@H]3C[C@@H](CC(C)(C)C)C3)n2C2CC2)c(C)c1` [Example F-540] cannot be ordered by EC50: less than 3 µM for the first, less than 3 µM for the second.

Compared with `Cc1ccc(NC(=O)C[C@H](CCC(=O)O)c2noc([C@H]3C[C@@H](CC(C)(C)C)C3)c2C2CC2)c(C)n1` [Example F-673], `Cc1ccc(NC(=O)C[C@H](CCC(=O)O)c2noc3c2C(C)CCC3CCC(C)C)c(Cl)c1` (single isomer, unassigned) [Example F-695] is higher in EC50: less than 3 µM for the first, greater than 3 µM for the second.

First: Cc1ccc(NC(=O)C[C@H](CC(C)C)c2nnc(-c3cc(CC(C)C)no3)n2C2CC2)c(C)c1 [Example F-591]
Second: CC(=O)N1C[C@@H](C(=O)Nc2ccc(C)cc2C)[C@H](c2nnc(-c3cc(CC(C)C)no3)n2C2CC2)C1 [Example F-507]
The EC50 of the first is lower: less than 3 µM for the first, greater than 3 µM for the second. The first is the more potent here.

`CC(=O)N1C[C@H](C(=O)Nc2ccc(Cl)cc2C)[C@@H](c2nnc(-c3cc(CC(C)C)on3)n2C2CC2)C1` [Example F-613] and `Cc1c(NC(=O)C[C@H](CCO)c2nnc(-c3cc(CC(C)C)on3)n2C2CC2)ccc(F)c1F` [Example F-662] cannot be ordered by EC50: less than 3 µM for the first, less than 3 µM for the second.

First: Cc1ccc(NC(=O)CC(CC(=O)O)c2nnc([C@H]3C[C@@H](CC(C)C)C3)n2C2CC2)c(C)c1 (mixture of isomers) [Example F-499]
Second: Cc1ccc(NC(=O)C[C@H](CCCO)c2noc(-c3cc(CC(C)C)[nH]n3)c2C2CC2)c(F)c1 [Example F-702]
The EC50 of the first is higher: greater than 3 µM for the first, less than 3 µM for the second.

Compound `CC(C)(C)C(F)(F)c1cc(-c2onc([C@@H](CCC(=O)O)CC(=O)Nc3ccc(Cl)cc3F)c2C2CC2)no1` [Example E-77] has an EC50 of less than 3 µM.

target: T2, mouse RORγ (Mus musculus, UniProt P51450); assay: Luciferase reporter gene assay of inhibitory effect against RORγ transcriptional activity (GAL4-mRORγ plasmid in CHO cells); format: cell-based; settings: read-out: LUC EC50 (μM) mRORg
T2 construct: mouse, NM_011281.2 and from Ile251 to Lys516; expressed in transfected cells; host or cells: CHO cells (transient co-transfection with pG5-Luc reporter)
T2 sequence (P51450 251-516): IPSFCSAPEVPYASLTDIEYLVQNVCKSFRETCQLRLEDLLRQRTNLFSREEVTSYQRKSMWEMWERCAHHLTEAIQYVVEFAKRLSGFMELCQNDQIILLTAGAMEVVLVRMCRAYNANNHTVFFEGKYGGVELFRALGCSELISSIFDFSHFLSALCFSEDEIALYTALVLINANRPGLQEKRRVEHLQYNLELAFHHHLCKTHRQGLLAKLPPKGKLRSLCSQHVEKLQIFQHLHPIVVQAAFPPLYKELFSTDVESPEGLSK
In short: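 Readout is intracellular luciferase after 2-day compound exposure (8 concentrations, 0.1% DMSO) in CHO cells expressing GAL4 fused to mouse RORγ LBD residues Ile251–Lys516 plus pG5-Luc reporter. EC50 fitted from %-of-control; points showing resazurin-detected cytotoxicity dropped.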

`CC(=O)N1C[C@H](C(=O)Nc2ccc(C)cc2C)[C@@H](c2nnc(-c3ccc(C(C)C)cc3)n2C2CC2)C1` [Example F-411] and `CC(=O)N1C[C@H](C(=O)Nc2ccc(C)cc2C)[C@@H](c2nnc(CCCC(C)(C)C)n2C2CC2)C1` [Example F-338] cannot be ordered by EC50: less than 3 µM for the first, less than 3 µM for the second.

Compared with `Cc1ccc(NC(=O)CC(CCC(=O)N(C)C)c2nnc(CCCC(C)C)n2C2CC2)c(C)c1` (racemic) [Example F-286], `COc1cc(C)ccc1CNC(=O)C[C@H](NC(C)=O)c1nnc(CCCC(C)C)n1C1CC1` [Example F-312] is higher in EC50: less than 3 µM for the first, greater than 3 µM for the second.

`Cc1c(Cl)cccc1NC(=O)[C@H]1CN(C(=O)CO)C[C@@H]1c1nnc(CCC(C)C)n1C1CC1` (racemic) [Example F-146] and `CCC(C)CCc1nnc(CCC(=O)Nc2cccc(Cl)c2C)n1C1CC1` (racemic) [Example F-235] cannot be ordered by EC50: less than 3 µM for the first, less than 3 µM for the second.

Compared with `CC(C)n1c(CCC(=O)Nc2cccc3ccccc23)nnc1C1Cc2ccccc2C1` [Example F-6], `CCn1c(CCC(=O)Nc2cccc3ccccc23)nnc1CC1CCCCC1` [Example F-17] is lower in EC50: greater than 3 µM for the first, less than 3 µM for the second.

`COc1cc(C)ccc1CNC(=O)[C@H]1CCN(C(C)=O)[C@@H]1c1nnc(CCCC(C)(C)C)n1C1CC1` [Example F-297] and `CC(=O)N1CC([C@@H](CC(=O)Nc2ccc(C)cc2C)c2nnc([C@H]3C[C@@H](CC(C)C)C3)n2C2CC2)C1` [Example F-466] cannot be ordered by EC50: less than 3 µM for the first, less than 3 µM for the second.

First: CC(C)(C)CCc1cc(-c2onc([C@@H](CCC(=O)O)CC(=O)Nc3ccc(F)cc3Cl)c2C2CC2)no1 [Example E-34]
Second: Cc1cnccc1NC(=O)CCc1nnc(CCC(C)C)n1C1CC1 [Example F-89]
The EC50 of the first is lower: less than 3 µM for the first, greater than 3 µM for the second. The first is the more potent here.

`CCn1c(CCC(=O)Nc2cccc3ccccc23)nnc1CCC1CCCCC1` [Example F-13] gave an EC50 of less than 3 µM.

same assay, conditions: read-out: LUC EC50 mRORg

`Cc1ccc(NC(=O)[C@H]2CN(C(C)C)C[C@@H]2c2nnc([C@H]3C[C@@H](CC(C)C)C3)n2C2CC2)c(C)c1` [Example F-597] and `Cc1ccc(NC(=O)[C@H]2CC(CO)C[C@@H]2c2nnc([C@H]3C[C@@H](CC(C)C)C3)n2C2CC2)c(C)c1` (single isomer, unassigned) [Example F-512] cannot be ordered by EC50: less than 3 µM for the first, less than 3 µM for the second.

`CCN(CC)C(=O)CN1C[C@H](C(=O)Nc2ccc(C)cc2C)[C@@H](c2nnc([C@H]3C[C@@H](CC(C)(C)C)C3)n2C2CC2)C1` [Example F-649] and `Cc1ccc(NC(=O)[C@H]2CN(C(=O)OC(C)(C)C)C[C@@H]2c2nnc([C@H]3C[C@@H](CC(C)(C)C)C3)n2C2CC2)c(C)c1` [Example F-540] cannot be ordered by EC50: less than 3 µM for the first, less than 3 µM for the second.

`Cc1ccc(NC(=O)C[C@H](CCC(=O)O)c2noc([C@H]3C[C@@H](CC(C)(C)C)C3)c2C2CC2)c(C)n1` [Example F-673] and `Cc1ccc(NC(=O)C[C@H](CCC(=O)O)c2noc3c2C(C)CCC3CCC(C)C)c(Cl)c1` (single isomer, unassigned) [Example F-695] cannot be ordered by EC50: less than 3 µM for the first, less than 3 µM for the second.

First: Cc1ccc(NC(=O)C[C@H](CC(C)C)c2nnc(-c3cc(CC(C)C)no3)n2C2CC2)c(C)c1 [Example F-591]
Second: CC(=O)N1C[C@@H](C(=O)Nc2ccc(C)cc2C)[C@H](c2nnc(-c3cc(CC(C)C)no3)n2C2CC2)C1 [Example F-507]
The EC50 of the first is lower: less than 3 µM for the first, greater than 3 µM for the second.

`CC(=O)N1C[C@H](C(=O)Nc2ccc(Cl)cc2C)[C@@H](c2nnc(-c3cc(CC(C)C)on3)n2C2CC2)C1` [Example F-613] and `Cc1c(NC(=O)C[C@H](CCO)c2nnc(-c3cc(CC(C)C)on3)n2C2CC2)ccc(F)c1F` [Example F-662] cannot be ordered by EC50: less than 3 µM for the first, less than 3 µM for the second.

`Cc1ccc(NC(=O)CC(CC(=O)O)c2nnc([C@H]3C[C@@H](CC(C)C)C3)n2C2CC2)c(C)c1` (mixture of isomers) [Example F-499] and `Cc1ccc(NC(=O)C[C@H](CCCO)c2noc(-c3cc(CC(C)C)[nH]n3)c2C2CC2)c(F)c1` [Example F-702] cannot be ordered by EC50: less than 3 µM for the first, less than 3 µM for the second.

With `CC(C)(C)C(F)(F)c1cc(-c2onc([C@@H](CCC(=O)O)CC(=O)Nc3ccc(Cl)cc3F)c2C2CC2)no1` [Example E-77] the EC50 was less than 3 µM.
